Laboratory results: PMC2982120 (2010)

T1: Jen1p (Saccharomyces cerevisiae, UniProt P36035)
T1 sequence (P36035 2-616): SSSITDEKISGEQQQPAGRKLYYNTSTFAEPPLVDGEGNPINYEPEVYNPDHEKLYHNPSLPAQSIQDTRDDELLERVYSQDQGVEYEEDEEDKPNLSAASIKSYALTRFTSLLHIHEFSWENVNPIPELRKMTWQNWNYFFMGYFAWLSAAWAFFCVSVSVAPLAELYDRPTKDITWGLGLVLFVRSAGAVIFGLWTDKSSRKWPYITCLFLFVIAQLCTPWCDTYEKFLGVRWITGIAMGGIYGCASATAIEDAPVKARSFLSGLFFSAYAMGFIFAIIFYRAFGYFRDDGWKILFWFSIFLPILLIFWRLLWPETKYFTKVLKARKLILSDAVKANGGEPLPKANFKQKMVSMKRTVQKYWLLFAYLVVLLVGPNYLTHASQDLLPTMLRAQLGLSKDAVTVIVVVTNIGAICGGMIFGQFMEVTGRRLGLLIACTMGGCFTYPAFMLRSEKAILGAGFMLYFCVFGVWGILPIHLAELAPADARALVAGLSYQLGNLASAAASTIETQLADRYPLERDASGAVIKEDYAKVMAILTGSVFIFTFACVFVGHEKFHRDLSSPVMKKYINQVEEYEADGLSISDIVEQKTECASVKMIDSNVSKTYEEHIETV


How the values were obtained:
Jen1p = target: T1, Jen1p; test: […]-lactate uptake in Jen1p-overexpressing yeast; assay type: cell-based
selenite uptake = substrate: O=[Se](O)O; test: selenite uptake; assay type: cell-based, Saccharomyces cerevisiae; details: competitive with lactate

Molecule	Ki (Jen1p)	Km (selenite uptake)
CC(O)C(=O)O (centres unmarked) [lactate]	900 µM	
Jen1p (Saccharomyces cerevisiae S288C) (protein) SSSITDEKISGEQQQPAGRKLYYNTSTFAEPPLVDGEGNPINYEPEVYNPDHEKLYHNPSLPAQSIQDTRDDELLERVYSQDQGVEYEEDEEDKPNLSAASIKSYALTRFTSLLHIHEFSWENVNPIPELRKMTWQNWNYFFMGYFAWLSAAWAFFCVSVSVAPLAELYDRPTKDITWGLGLVLFVRSAGAVIFGLWTDKSSRKWPYITCLFLFVIAQLCTPWCDTYEKFLGVRWITGIAMGGIYGCASATAIEDAPVKARSFLSGLFFSAYAMGFIFAIIFYRAFGYFRDDGWKILFWFSIFLPILLIFWRLLWPETKYFTKVLKARKLILSDAVKANGGEPLPKANFKQKMVSMKRTVQKYWLLFAYLVVLLVGPNYLTHASQDLLPTMLRAQLGLSKDAVTVIVVVTNIGAICGGMIFGQFMEVTGRRLGLLIACTMGGCFTYPAFMLRSEKAILGAGFMLYFCVFGVWGILPIHLAELAPADARALVAGLSYQLGNLASAAASTIETQLADRYPLERDASGAVIKEDYAKVMAILTGSVFIFTFACVFVGHEKFHRDLSSPVMKKYINQVEEYEADGLSISDIVEQKTECASVKMIDSNVSKTYEEHIETV		910 ± 130 µM
